26 molecules from patent US7446199B2, “Compositions useful as inhibitors of protein kinases” (Vertex Pharmaceuticals Incorporated, priority 2003, dated 2008) can be followed below.

“And” between values parts separate entries of the source, which are not always exact repeats. Equal entries are not always repeated.

One assay deals with T1, JAK3 (Homo sapiens, UniProt P52333).
T1 sequence (P52333 1-1124): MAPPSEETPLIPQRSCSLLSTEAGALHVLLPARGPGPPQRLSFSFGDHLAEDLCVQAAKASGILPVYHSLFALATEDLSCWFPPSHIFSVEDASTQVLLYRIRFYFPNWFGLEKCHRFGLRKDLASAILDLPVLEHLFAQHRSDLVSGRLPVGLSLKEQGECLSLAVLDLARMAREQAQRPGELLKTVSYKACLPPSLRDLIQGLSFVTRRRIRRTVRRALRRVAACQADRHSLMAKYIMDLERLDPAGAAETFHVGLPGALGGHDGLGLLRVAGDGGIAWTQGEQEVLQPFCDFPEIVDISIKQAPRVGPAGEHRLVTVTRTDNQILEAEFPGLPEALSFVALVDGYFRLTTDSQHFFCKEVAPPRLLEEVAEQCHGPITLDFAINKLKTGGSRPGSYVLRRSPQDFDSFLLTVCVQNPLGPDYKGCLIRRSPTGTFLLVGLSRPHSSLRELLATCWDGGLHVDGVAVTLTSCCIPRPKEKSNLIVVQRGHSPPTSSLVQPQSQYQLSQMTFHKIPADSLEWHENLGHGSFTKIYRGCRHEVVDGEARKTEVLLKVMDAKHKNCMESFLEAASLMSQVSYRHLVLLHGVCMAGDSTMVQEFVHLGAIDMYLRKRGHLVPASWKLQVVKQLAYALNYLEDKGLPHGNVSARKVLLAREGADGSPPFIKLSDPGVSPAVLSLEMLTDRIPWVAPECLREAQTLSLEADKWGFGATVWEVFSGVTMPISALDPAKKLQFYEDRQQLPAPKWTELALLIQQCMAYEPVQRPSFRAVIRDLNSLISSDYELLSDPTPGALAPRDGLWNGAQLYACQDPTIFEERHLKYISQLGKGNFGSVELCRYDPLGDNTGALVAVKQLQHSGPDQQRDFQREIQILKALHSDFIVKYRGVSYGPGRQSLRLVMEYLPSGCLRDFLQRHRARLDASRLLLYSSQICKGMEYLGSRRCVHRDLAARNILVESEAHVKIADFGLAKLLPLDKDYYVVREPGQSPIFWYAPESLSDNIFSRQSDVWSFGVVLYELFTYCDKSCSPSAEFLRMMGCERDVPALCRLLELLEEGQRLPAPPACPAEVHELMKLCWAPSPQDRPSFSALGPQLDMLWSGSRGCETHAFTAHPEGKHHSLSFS
Put plainly: JAK3 inhibition assay (ELISA, Poly (Glu, Ala, Tyr) coated plates). It is filed as biochemical. To be noted: 2 mM ATP, 60 minutes at 30° C. Summed up:
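ELISA on Poly(Glu,Ala,Tyr) 6:3:1-coated plates with 2 mM ATP and 5 mM MgCl2. JAK enzyme started the reaction, run 60 min at 30° C. Phosphotyrosine was detected with HRP-conjugated 4G10 antibody and TMB, read at 450 nm, and IC50 was derived from optical densities.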
For orientation: An ELISA detects its analyte on a solid surface through an enzyme-linked reagent.

The target of the next assay is c-Met (Homo sapiens, UniProt P08581). Put plainly: Ki determination for the inhibition of c-Met, coupled enzyme system. It is filed as biochemical. The following applies: 200 μM ATP, 10 μM polyGluTyr, 80 nM c-Met, 30° C. A digest of the protocol:
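Coupled pyruvate kinase/lactate dehydrogenase NADH assay with 80 nM c-Met, 200 μM ATP, 10 μM polyGluTyr in pH 7.5 HEPES, 1.5% DMSO at 30° C. Compound (0.006–12.5 μM final, 12-point) preincubated 10 min; ATP started reaction, rates read over 10 min; Ki derived from rate versus inhibitor concentration.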

Chain of c-Met (P08581 25-1390): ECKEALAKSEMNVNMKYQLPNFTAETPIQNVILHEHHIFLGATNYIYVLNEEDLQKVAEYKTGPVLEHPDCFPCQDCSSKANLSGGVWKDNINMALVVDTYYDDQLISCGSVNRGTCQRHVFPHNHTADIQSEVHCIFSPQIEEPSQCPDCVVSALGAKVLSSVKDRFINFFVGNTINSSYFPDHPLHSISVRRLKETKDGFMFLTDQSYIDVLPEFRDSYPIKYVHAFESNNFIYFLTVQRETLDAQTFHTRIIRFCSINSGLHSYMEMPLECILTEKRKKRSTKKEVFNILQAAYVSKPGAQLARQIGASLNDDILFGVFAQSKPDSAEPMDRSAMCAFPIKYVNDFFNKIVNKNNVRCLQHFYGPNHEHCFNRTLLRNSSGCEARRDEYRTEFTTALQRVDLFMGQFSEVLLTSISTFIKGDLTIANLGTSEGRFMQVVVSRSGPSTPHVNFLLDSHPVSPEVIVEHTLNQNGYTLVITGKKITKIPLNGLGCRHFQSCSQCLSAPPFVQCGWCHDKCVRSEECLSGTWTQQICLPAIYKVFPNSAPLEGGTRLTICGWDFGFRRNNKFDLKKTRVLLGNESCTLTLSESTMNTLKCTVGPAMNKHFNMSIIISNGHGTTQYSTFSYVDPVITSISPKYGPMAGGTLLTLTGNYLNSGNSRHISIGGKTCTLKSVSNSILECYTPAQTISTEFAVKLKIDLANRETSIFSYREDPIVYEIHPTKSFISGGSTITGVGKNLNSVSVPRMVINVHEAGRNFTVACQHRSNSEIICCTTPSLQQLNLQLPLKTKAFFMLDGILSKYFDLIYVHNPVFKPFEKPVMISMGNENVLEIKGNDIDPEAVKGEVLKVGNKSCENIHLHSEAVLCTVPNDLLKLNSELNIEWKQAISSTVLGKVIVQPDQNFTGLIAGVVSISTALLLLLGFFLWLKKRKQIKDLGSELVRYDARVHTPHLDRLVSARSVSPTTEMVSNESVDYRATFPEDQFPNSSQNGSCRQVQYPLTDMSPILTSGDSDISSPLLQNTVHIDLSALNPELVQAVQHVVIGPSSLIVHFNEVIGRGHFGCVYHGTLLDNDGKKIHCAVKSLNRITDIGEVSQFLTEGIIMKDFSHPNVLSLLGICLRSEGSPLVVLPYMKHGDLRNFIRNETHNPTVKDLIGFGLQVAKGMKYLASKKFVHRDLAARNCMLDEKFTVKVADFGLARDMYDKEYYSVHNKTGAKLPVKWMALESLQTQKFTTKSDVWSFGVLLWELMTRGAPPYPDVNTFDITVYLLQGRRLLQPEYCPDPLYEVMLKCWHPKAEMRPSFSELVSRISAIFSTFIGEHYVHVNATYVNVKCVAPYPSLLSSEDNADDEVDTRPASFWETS

For `CN1CCN(C(=O)[C@H]2C[C@H]2c2cnc3[nH]cc(-c4oncc4-c4cccc(F)c4F)c3c2)CC1` (relative stereo) [Compound 143, cis-(2-{3-[4-(2,3-Difluoro-phenyl)-isoxazol-5-yl]-1H-pyrrolo[2,3-b]pyridin-5-yl}-cyclopropyl)-(4-methyl-piperazin-1-yl)-methanone], the Ki at JAK3 was 1000 to 12500 nM; on c-Met it was 200 to 1000 nM and 1000 to 12500 nM.

Take `Fc1cccc(-c2cnoc2-c2c[nH]c3ncccc23)c1F` [Compound 1, 3-[4-(2,3-Difluoro-phenyl)-isoxazol-5-yl]-1H-pyrrolo[2,3-b]pyridine]: the inhibition constant Ki is 200 to 1000 nM on JAK3 and less than 200 nM at c-Met.

Regarding `Clc1cccc(-c2cnoc2-c2c[nH]c3ncccc23)c1Cl` [Compound 2, 3-[4-(2,3-Dichloro-phenyl)-isoxazol-5-yl]-1H-pyrrolo[2,3-b]pyridine], the Ki at JAK3 is 200 to 1000 nM; on c-Met, less than 200 nM.

Consider `Fc1cccc(Cc2cnoc2-c2c[nH]c3ncccc23)c1F` [Compound 36, 3-[4-(2,3-Difluoro-benzyl)-isoxazol-5-yl]-1H-pyrrolo[2,3-b]pyridine], for which the Ki on JAK3 and at c-Met was 1000 to 12500 nM each time.

Regarding `Fc1cccc(-c2cnoc2-c2c[nH]c3ncc(Br)cc23)c1F` [Compound 37, 5-Bromo-3-[4-(2,3-difluoro-phenyl)-isoxazol-5-yl]-1H-pyrrolo[2,3-b]pyridine], the Ki at JAK3 and on c-Met was less than 200 nM each time.

For `COc1cnc2[nH]cc(-c3oncc3-c3cccc(F)c3F)c2c1` [Compound 38, 3-[4-(2,3-Difluoro-phenyl)-isoxazol-5-yl]-5-methoxy-1H-pyrrolo[2,3-b]pyridine], the Ki on JAK3 and on c-Met was less than 200 nM each time.

For `Fc1ccc(-c2cnoc2-c2c[nH]c3ncccc23)c(F)c1F` [Compound 40, 3-[4-(2,3,4-Trifluoro-phenyl)-isoxazol-5-yl]-1H-pyrrolo [2,3-b]pyridine], the Ki was 1000 to 12500 nM at JAK3 and less than 200 nM on c-Met.

As to `Fc1c(Cl)cccc1-c1cnoc1-c1c[nH]c2ncccc12` [Compound 42, 3-[4-(3-Chloro-2-fluoro-phenyl)-isoxazol-5-yl]-1H-pyrrolo[2,3-b]pyridine], the Ki at JAK3 was 200 to 1000 nM; on c-Met, less than 200 nM.

Regarding `Oc1cnc2[nH]cc(-c3oncc3-c3cccc(F)c3F)c2c1` [Compound 43, 3-[4-(2,3-Difluoro-phenyl)-isoxazol-5-yl]-1H-pyrrolo[2,3-b]pyridin-5-ol], the Ki on JAK3 and at c-Met was less than 200 nM in each case.

`c1cnc2[nH]cc(-c3oncc3C3CCCCC3)c2c1` [Compound 47, 3-(4-Cyclohexyl-isoxazol-5-yl)-1H-pyrrolo[2,3-b]pyridine]: the Ki at JAK3 lay in the range of 200 to 1000 nM; on c-Met it was 1000 to 12500 nM.

As for `Oc1cnc2[nH]cc(-c3oncc3-c3cccc(Cl)c3Cl)c2c1` [Compound 48, 3-[4-(2,3-Dichloro-phenyl)-isoxazol-5-yl]-1H-pyrrolo[2,3-b]pyridin-5-ol], the Ki on JAK3 and on c-Met was less than 200 nM throughout.

As to `COc1cnc2[nH]cc(-c3oncc3-c3cccc(Cl)c3Cl)c2c1` [Compound 49, 3-[4-(2,3-Dichloro-phenyl)-isoxazol-5-yl]-5-methoxy-1H-pyrrolo[2,3-b]pyridine], the inhibition constant Ki at JAK3 and at c-Met was less than 200 nM each time.

For `CN(C)CC#Cc1cnc2[nH]cc(-c3oncc3-c3cccc(F)c3F)c2c1` [Compound 53, (3-{3-[4-(2,3-Difluoro-phenyl)-isoxazol-5-yl]-1H-pyrrolo[2,3-b]pyridin-5-yl}-prop-2-ynyl)-dimethyl-amine], the Ki on JAK3 is 200 to 1000 nM; at c-Met, less than 200 nM.

On to `CN(C)c1ccnc2[nH]cc(-c3oncc3-c3cccc(F)c3F)c12` [Compound 56, {3-[4-(2,3-Difluoro-phenyl)-isoxazol-5-yl]-1H-pyrrolo[2,3-b]pyridin-4-yl}-dimethyl-amine], for which the values for the Ki on JAK3 and on c-Met were 200 to 1000 nM and 1000 to 12500 nM, respectively.

Turning to `Fc1cccc(-c2cnoc2-c2c[nH]c3ncc(-c4ccncc4)cc23)c1F` [Compound 57, 3-[4-(2,3-Difluoro-phenyl)-isoxazol-5-yl]-5-pyridin-4-yl-1H-pyrrolo[2,3-b]pyridine], the Ki at JAK3 and on c-Met was less than 200 nM in each case.

In the case of `Fc1cccc(-c2cnoc2-c2c[nH]c3ncc(-c4ccccc4)cc23)c1F` [Compound 58, 3-[4-(2,3-Difluoro-phenyl)-isoxazol-5-yl]-5-phenyl-1H-pyrrolo[2,3-b]pyridine], the Ki on JAK3 and at c-Met was less than 200 nM throughout.

As for `Fc1cccc(-c2cnoc2-c2c[nH]c3ncc(-c4cccnc4)cc23)c1F` [Compound 59, 3-[4-(2,3-Difluoro-phenyl)-isoxazol-5-yl]-5-pyridin-3-yl-1H-pyrrolo[2,3-b]pyridine], the Ki at JAK3 and at c-Met was less than 200 nM each time.

For the molecule `CN1CCC(c2cnc3[nH]cc(-c4oncc4-c4cccc(F)c4F)c3c2)CC1` [Compound 60, 3-[4-(2,3-Difluoro-phenyl)-isoxazol-5-yl]-5-(1-methyl-piperidin-4-yl)-1H-pyrrolo[2,3-b]pyridine], the Ki at JAK3 was 1000 to 12500 nM; on c-Met, less than 200 nM.

For `CN(C)c1cccc(-c2cnc3[nH]cc(-c4oncc4-c4cccc(F)c4F)c3c2)c1` [Compound 61, (3-{3-[4-(2,3-Difluoro-phenyl)-isoxazol-5-yl]-1H-pyrrolo[2,3-b]pyridin-5-yl}-phenyl)-dimethyl-amine], the Ki was 200 to 1000 nM on JAK3 and less than 200 nM on c-Met.

Take `Fc1cccc(-c2cnoc2-c2c[nH]c3ncc(C4CCNCC4)cc23)c1F` [Compound 62, 3-[4-(2,3-Difluoro-phenyl)-isoxazol-5-yl]-5-piperidin-4-yl-1H-pyrrolo[2,3-b]pyridine]: the Ki on JAK3 was 1000 to 12500 nM; on c-Met, less than 200 nM.

For `CC(=O)N1CCC(c2cnc3[nH]cc(-c4oncc4-c4cccc(F)c4F)c3c2)CC1` [Compound 63, 1-(4-{3-[4-(2,3-Difluoro-phenyl)-isoxazol-5-yl]-1H-pyrrolo[2,3-b]pyridin-5-yl}-piperidin-1-yl)-ethanone], the values for the Ki on JAK3 and on c-Met were 200 to 1000 nM and less than 200 nM, respectively.

Consider `N#CCC(=O)N1CCC(c2cnc3[nH]cc(-c4oncc4-c4cccc(F)c4F)c3c2)CC1` [Compound 64, 3-(4-{3-[4-(2,3-Difluoro-phenyl)-isoxazol-5-yl]-1H-pyrrolo[2,3-b]pyridin-5-yl}-piperidin-1-yl)-3-oxo-propionitrile], for which the Ki on JAK3 was 200 to 1000 nM; at c-Met it was less than 200 nM.

As to `CC(=O)Nc1cccc(-c2cnc3[nH]cc(-c4oncc4-c4cccc(F)c4F)c3c2)c1` [Compound 65, N-(3-{3-[4-(2,3-Difluoro-phenyl)-isoxazol-5-yl]-1H-pyrrolo[2,3-b]pyridin-5-yl}-phenyl)-acetamide], the Ki on JAK3 and on c-Met was less than 200 nM each time.

On to `C=Cc1cnc2[nH]cc(-c3oncc3-c3cccc(F)c3F)c2c1` [Compound 66, 3-[4-(2,3-Difluoro-phenyl)-isoxazol-5-yl]-5-vinyl-1H-pyrrolo[2,3-b]pyridine], for which the Ki on JAK3 and on c-Met was less than 200 nM in each case.

Take `O=c1ccc(-c2cnc3[nH]cc(-c4oncc4-c4cccc(F)c4F)c3c2)c[nH]1` [Compound 67, 5-{3-[4-(2,3-Difluoro-phenyl)-isoxazol-5-yl]-1H-pyrrolo [2,3-b]pyridin-5-yl}-1H-pyridin-2-one]: the Ki at JAK3 and at c-Met was less than 200 nM in each case.

In the case of `Fc1cccc(-c2cnoc2-c2c[nH]c3ncc(-c4ccc(N5CCNCC5)cc4)cc23)c1F` [Compound 68, 3-[4-(2,3-Difluoro-phenyl)-isoxazol-5-yl]-5-(4-piperazin-1-yl-phenyl)-1H-pyrrolo[2,3-b]pyridine], the Ki at JAK3 and at c-Met was less than 200 nM each time.

A word on the Ki: it is the equilibrium dissociation constant of an inhibitor or competing ligand from its target. The low end stands for higher affinity, the high end for lower affinity.
